This is an account of results in ChEMBL document CHEMBL4177634, “6-Substituted quinolines as RORγt inverse agonists” (Bioorg Med Chem Lett, 2017).

In the test the target is T1, Nuclear receptor ROR-gamma (Homo sapiens, UniProt P51449).
T1 sequence (P51449 whole entry): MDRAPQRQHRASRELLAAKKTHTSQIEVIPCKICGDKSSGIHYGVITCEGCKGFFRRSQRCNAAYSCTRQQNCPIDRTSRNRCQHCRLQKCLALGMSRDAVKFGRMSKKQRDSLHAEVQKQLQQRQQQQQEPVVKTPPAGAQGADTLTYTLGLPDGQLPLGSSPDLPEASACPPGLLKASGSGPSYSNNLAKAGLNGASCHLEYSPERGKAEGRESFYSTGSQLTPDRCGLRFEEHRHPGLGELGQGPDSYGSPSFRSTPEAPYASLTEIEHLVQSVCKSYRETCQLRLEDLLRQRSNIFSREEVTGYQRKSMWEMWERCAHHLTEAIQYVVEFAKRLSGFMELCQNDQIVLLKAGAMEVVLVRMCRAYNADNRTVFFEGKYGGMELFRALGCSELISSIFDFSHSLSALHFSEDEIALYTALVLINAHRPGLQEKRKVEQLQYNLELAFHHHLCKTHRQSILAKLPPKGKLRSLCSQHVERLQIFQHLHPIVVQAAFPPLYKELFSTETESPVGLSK
As to the kind of experiment: Displacement of 1,8-ANS from human N-terminal His-tagged RORgammat LBD ([…]) expressed in Escherichia coli by thermofluor assay. (In DSF a fluorescence change marks the thermal transition of the protein.)

What is called Kd is the concentration at which binding is half-saturated. A low value points to tighter binding. In turn, `COc1nc2ccc(C(O)(c3ccccc3)C3CCN(C(C)=O)CC3)cc2c(Cl)c1Cc1ccc(-n2cccn2)cc1` (stereo in doubt; 25a) showed a dissociation constant (Kd) of 3.6 nM.
